This is an account of results in ChEMBL document CHEMBL5584244, “Discovery of novel pyrrolo[2,1-c][1,4]benzodiazepine-3,11-dione (PBD) derivatives as selective HDAC6 inhibitors for the efficient treatment of idiopathic pulmonary fibrosis (IPF) in vitro and in vivo” (Eur J Med Chem, 2024).

Active and inactive are the calls of the source. The calls are words filed in the database; no cut-off is given here.

Series [1] addresses T1, Protein deacetylase HDAC6 (Homo sapiens) (UniProt Q9UBN7).
T1 sequence (whole entry): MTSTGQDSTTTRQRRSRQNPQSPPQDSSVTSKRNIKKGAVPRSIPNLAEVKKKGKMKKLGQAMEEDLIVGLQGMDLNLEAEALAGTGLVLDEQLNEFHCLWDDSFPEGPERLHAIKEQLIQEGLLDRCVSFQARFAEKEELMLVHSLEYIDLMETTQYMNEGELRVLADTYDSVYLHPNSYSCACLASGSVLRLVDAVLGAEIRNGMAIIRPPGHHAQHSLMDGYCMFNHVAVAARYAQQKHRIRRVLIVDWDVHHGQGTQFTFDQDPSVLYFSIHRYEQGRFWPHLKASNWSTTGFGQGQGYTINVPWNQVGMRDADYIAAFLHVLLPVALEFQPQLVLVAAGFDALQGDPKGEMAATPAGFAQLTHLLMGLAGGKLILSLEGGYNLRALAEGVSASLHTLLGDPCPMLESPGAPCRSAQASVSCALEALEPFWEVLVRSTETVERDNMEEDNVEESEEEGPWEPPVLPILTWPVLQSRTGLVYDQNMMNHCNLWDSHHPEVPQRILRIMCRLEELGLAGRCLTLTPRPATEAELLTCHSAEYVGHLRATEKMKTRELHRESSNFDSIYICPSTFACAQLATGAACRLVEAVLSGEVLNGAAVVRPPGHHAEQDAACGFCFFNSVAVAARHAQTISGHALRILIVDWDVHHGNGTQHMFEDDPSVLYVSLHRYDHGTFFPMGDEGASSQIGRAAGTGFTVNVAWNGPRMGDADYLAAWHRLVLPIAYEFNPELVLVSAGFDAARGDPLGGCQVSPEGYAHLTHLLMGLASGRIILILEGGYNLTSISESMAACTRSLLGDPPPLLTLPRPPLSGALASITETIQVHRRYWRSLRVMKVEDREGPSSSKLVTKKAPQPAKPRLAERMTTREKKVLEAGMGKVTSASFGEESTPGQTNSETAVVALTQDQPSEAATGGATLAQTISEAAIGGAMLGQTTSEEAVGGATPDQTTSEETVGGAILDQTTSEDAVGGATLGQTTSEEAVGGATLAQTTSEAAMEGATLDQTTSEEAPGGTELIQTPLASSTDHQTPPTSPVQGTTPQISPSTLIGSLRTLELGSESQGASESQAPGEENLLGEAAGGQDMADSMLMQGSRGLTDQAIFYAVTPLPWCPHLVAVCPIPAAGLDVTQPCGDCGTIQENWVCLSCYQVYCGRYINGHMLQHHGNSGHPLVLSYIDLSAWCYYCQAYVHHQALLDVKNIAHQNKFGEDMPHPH
The series can be described thus: Inhibition of HDAC6 in TGF-beta1-induced HELF cells assessed as upregulation of acetylated histone H3 level at 2.5 to 10 uM by Western blot analysis. The class given is cell-based. The following applies: dose 2.5-10 µM. A general note: A western blot detects proteins with antibodies after separation by electrophoresis.

Series [2] is described as follows: Stability of compound in human liver microsomes assessed as remaining parent compound at 100 uM incubated after 60 mins by LC-MS/MS analysis. The class given is ADME, Microsome. The conditions noted are these: read-out: Stability. On the technique in general: Microsomes from liver hold many membrane-bound enzymes, among them those of drug oxidation.
In the next series the target is Histone deacetylase 1 (Homo sapiens, UniProt Q13547). The series is described as follows: Inhibition of C-terminal His6/Flag-tagged recombinant human full length HDAC1 using Boc-Lys (Ac)-AMC as substrate incubated for 120 mins by fluorescence analysis.
Chain of Histone deacetylase 1 (Q13547 whole entry): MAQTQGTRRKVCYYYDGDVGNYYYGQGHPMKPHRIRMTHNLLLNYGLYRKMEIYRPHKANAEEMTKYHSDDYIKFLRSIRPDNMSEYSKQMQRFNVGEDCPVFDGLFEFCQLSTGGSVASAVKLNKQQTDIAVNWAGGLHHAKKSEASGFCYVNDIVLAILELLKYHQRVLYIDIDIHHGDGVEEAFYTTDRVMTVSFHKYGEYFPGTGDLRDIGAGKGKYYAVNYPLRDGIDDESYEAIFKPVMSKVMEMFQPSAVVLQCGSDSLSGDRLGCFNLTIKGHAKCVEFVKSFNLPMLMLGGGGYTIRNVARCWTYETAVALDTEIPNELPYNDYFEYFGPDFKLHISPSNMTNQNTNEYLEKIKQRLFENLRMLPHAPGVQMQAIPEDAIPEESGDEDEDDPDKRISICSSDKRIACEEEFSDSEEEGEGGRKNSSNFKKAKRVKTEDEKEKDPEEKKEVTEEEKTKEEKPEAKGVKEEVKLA
Series [3] can be described thus: Intrinsic clearance in human liver microsomes at 100 uM incubated upto 60 mins by LC-MS/MS analysis. The class given is ADME, Microsome. The conditions noted are these: read-out: CLH.
The species named for the next series is Homo sapiens. The series is described as follows: Selectivity index, ratio IC50 for C-terminal His6/Flag-tagged recombinant human full length HDAC1 to IC50 for inhibition of recombinant human full length HDAC6.
For series [4], the system named is Mus musculus. The series can be described thus: Anti-pulmonary fibrosis activity in bleomycin-induced C57BL/6 mouse model of pulmonary fibrosis assessed as decrease in collapse of the alveolar cavity in lung at 50 to 100 mg/kg, ip for 3 weeks by H and E staining based fluorescence microscopic analysis. It counts as functional, organism-based. The conditions noted are these: dose 50-100 mg/kg.

The test system of series [5] is Mus musculus. The series can be described thus: Anti-pulmonary fibrosis activity in bleomycin-induced ip dosed C57BL/6 mouse model of pulmonary fibrosis assessed as inhibition of alpha-SMA protein expression level in lung for 3 weeks by immunohistochemical analysis. The conditions noted are these: dose 50-100 mg/kg. It counts as functional, organism-based.
Series [6] deals with Mus musculus. The series can be described thus: Anti-pulmonary fibrosis activity in bleomycin-induced C57BL/6 mouse model of pulmonary fibrosis assessed as inhibition of HDAC activity in lung at 50 to 100 mg/kg, ip for 3 weeks by fluorescence based microplate reader analysis. It counts as functional, organism-based. The following applies: dose 50-100 mg/kg.
Another series deals with HELF. The series can be described thus: Antifibrotic activity against TGF-beta1-induced HELF cells assessed as reduction in viability after 48 hrs by MTT assay. The class given is functional, cell-based. The conditions noted are these: Homo sapiens, dose 2.5-10 µM. Background: Tetrazolium assays rely on reduction of a dye to a coloured formazan, in cell work by metabolically active cells.

Series [7] is described as follows: Stability of compound in human plasma assessed as remaining parent compound at 2 uM incubated for 120 mins by LC-MS/MS analysis. The class given is ADME, cell-free. The following applies: read-out: Stability.
The test system of series [8] is Mus musculus. The series can be described thus: Anti-pulmonary fibrosis activity in bleomycin-induced C57BL/6 mouse model of pulmonary fibrosis assessed as decrease in fibrosis scars in lung at 50 to 100 mg/kg, ip for 3 weeks by H and E staining based fluorescence microscopic analysis. The following applies: dose 50-100 mg/kg. It counts as functional, organism-based.

Series [9] addresses T1, Protein deacetylase HDAC6 (Homo sapiens). The series can be described thus: Inhibition of HDAC6 in TGF-beta1-induced HELF cells by fluorescence based microplate reader analysis. The class given is cell-based. The following applies: dose 2.5-10 µM.
Series [10] can be described thus: Cytotoxicity against HELF cells assessed as reduction in viability at 1 to 300 uM after 48 hrs under without FBS condition by MTT assay. The class given is toxicity, cell-based. The conditions noted are these: human, dose 1-300 µM.
The target in series [11] is T2, TGF-beta receptor type-1 (Homo sapiens) (UniProt P36897).
T2 sequence (whole entry): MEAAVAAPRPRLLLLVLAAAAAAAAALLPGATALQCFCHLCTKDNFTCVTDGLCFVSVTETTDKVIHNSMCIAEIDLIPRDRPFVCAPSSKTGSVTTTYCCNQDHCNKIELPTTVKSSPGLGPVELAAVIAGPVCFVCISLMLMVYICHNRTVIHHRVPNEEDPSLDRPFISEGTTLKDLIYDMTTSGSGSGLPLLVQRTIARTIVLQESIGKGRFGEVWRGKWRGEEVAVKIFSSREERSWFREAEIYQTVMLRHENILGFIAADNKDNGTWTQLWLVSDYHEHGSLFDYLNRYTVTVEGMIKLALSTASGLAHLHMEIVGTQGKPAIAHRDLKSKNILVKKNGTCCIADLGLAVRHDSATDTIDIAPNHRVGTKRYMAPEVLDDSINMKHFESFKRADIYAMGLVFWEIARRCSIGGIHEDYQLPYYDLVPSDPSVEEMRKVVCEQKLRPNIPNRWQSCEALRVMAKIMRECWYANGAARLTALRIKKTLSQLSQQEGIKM
The series is described as follows: Inhibition of TGF-beta1-induced TGFbetaR1 protein phosphorylation level in HELF cells incubated for 48 hrs by Western blot analysis. It counts as cell-based. The following applies: dose 2.5-10 µM.

The target in series [12] is Mothers against decapentaplegic homolog 3 (Homo sapiens) (UniProt P84022). The series is described as follows: Inhibition of TGF-beta1-induced Smad3 protein phosphorylation level in HELF cells incubated for 48 hrs by Western blot analysis. The conditions noted are these: dose 2.5-10 µM. The class given is cell-based.
Chain of Mothers against decapentaplegic homolog 3 (Homo sapiens) (P84022 2-425 limits assumed): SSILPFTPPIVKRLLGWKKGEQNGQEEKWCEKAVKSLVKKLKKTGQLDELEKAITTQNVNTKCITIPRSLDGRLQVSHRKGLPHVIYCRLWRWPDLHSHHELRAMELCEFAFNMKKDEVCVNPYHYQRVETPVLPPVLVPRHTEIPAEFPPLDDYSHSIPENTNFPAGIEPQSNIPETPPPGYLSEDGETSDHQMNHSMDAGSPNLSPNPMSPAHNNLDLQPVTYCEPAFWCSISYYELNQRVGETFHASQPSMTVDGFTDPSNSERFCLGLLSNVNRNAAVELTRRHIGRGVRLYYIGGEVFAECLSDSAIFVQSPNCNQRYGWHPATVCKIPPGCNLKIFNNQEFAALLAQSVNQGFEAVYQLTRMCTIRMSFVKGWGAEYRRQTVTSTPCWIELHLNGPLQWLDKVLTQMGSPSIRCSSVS
Series [13] can be described thus: Cytotoxicity against HELF cells assessed as reduction in viability at 2.5 to 10 uM after 48 hrs by MTT assay. The class given is toxicity, cell-based. The conditions noted are these: human, dose 2.5-10 µM.

On to `CC(=O)O.O=C(NO)c1ccc(CN2C(=O)[C@@H]3CCCN3Cc3ccccc32)cc1`, for which the inhibition entry in series [1] is “inactive”. Moreover, the remaining at 1 h, 100 µM in [2] was 77.4%. The concentration for half-maximal inhibition (IC50) on Histone deacetylase 1 is 878 nM. The microsomal CLint at 100 µM in [3] was < 9.6 µL/min/mg. Moreover, the Ratio IC50 in the series listed under Homo sapiens worked out at 97.9. In addition, the result with Mus musculus [4] and in the series on Mus musculus [8] was Active. In addition, the inhibition result (with Mus musculus [5]; in series [9]; in series [11]; in [12]) was “Dose-Dependent Effect” in each case. The inhibition entry with Mus musculus [6] was “Active”. The results for the Activity result (with HELF; in series [10]; in series [13]) were “Dose-Dependent Effect”, “Toxic” and “Non-Toxic”, respectively. In addition, in [7], the remaining at 2 h, 2 µM is 92.3%.

A word on the IC50: it is the concentration at which inhibition is half-maximal.
